Legend:
Experiment in all cases: Kinase panel profiling at 1 µmol/L (MSA or IMAP), percentage inhibition
Type in all cases: biochemical
[1] = target: panel of 255 wild-type kinases (Homo sapiens, UniProt P09769); details: kinase FGR; 1 µmol/L single concentration; read-out: %-inhibition at 1 µmol/L, FGR
[2] = target: panel of 255 wild-type kinases (Homo sapiens, UniProt P51617); details: kinase IRAK1; 1 µmol/L single concentration; read-out: %-inhibition at 1 µmol/L, IRAK1
[3] = target: T1, panel of 255 wild-type kinases (Homo sapiens, UniProt P54760); details: kinase EPHB4; 1 µmol/L single concentration; read-out: %-inhibition at 1 µmol/L, EPHB4
T1 sequence (P54760 16-987): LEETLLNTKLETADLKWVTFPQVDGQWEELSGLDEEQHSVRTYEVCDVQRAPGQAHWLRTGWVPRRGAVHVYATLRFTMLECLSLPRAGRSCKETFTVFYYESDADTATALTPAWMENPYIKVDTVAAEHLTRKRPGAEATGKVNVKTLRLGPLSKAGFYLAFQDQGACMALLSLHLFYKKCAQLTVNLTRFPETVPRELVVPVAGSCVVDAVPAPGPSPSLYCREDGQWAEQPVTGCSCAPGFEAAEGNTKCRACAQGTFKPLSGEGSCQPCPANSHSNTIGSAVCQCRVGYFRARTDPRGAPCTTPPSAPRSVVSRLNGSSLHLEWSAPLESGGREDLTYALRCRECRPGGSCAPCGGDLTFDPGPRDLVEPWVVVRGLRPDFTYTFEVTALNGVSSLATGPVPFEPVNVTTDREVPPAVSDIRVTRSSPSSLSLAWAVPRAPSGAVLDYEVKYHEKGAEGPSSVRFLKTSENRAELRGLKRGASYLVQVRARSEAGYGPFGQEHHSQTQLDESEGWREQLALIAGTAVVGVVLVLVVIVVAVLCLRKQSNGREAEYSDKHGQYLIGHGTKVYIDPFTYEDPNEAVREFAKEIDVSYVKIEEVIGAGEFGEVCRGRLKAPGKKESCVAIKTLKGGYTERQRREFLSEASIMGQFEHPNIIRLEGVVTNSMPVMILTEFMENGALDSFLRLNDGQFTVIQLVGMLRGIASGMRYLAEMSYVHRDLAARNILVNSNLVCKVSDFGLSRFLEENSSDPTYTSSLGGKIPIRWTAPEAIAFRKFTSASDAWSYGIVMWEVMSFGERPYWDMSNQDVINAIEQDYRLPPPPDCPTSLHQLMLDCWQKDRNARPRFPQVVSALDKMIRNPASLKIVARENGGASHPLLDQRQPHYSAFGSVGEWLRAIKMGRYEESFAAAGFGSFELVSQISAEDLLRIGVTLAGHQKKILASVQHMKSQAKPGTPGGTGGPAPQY

[4] = target: panel of 255 wild-type kinases (Homo sapiens, UniProt Q13627); details: kinase DYRK1A; 1 µmol/L single concentration; read-out: %-inhibition at 1 µmol/L, DYRK1A
[5] = target: panel of 255 wild-type kinases (Homo sapiens, UniProt Q15303); details: kinase HER4; 1 µmol/L single concentration; read-out: %-inhibition at 1 µmol/L, HER4
[6] = target: panel of 255 wild-type kinases (Homo sapiens, UniProt Q15375); details: kinase EPHA7; 1 µmol/L single concentration; read-out: %-inhibition at 1 µmol/L, EPHA7
[7] = target: panel of 255 wild-type kinases (Homo sapiens, UniProt Q16539); details: p38α; 1 µmol/L single concentration; read-out: %-inhibition, p38α
[8] = target: panel of 255 wild-type kinases (Homo sapiens, UniProt Q8N568); details: kinase DCAMKL2; 1 µmol/L single concentration; read-out: %-inhibition at 1 µmol/L, DCAMKL2
[9] = target: panel of 255 wild-type kinases (Homo sapiens, UniProt Q9BUB5); details: MNK1; 1 µmol/L single concentration; read-out: %-inhibition, MNK1
[10] = target: panel of 255 wild-type kinases (Homo sapiens, UniProt Q9H1R3); details: kinase skMLCK; 1 µmol/L single concentration; read-out: %-inhibition at 1 µmol/L, skMLCK
[11] = target: panel of 255 wild-type kinases (Homo sapiens, UniProt Q9UK32); details: kinase RSK4; 1 µmol/L single concentration; read-out: %-inhibition at 1 µmol/L, RSK4
[12] = target: panel of 255 wild-type kinases (Homo sapiens, UniProt Q9UKE5); details: kinase TNIK; 1 µmol/L single concentration; read-out: %-inhibition at 1 µmol/L, TNIK
[13] = target: T2, panel of 255 wild-type kinases (Homo sapiens, UniProt Q9UQB9); details: AurC kinase assay; 1 µmol/L single concentration; read-out: %-inhibition AurC
T2 sequence (Q9UQB9 1-309): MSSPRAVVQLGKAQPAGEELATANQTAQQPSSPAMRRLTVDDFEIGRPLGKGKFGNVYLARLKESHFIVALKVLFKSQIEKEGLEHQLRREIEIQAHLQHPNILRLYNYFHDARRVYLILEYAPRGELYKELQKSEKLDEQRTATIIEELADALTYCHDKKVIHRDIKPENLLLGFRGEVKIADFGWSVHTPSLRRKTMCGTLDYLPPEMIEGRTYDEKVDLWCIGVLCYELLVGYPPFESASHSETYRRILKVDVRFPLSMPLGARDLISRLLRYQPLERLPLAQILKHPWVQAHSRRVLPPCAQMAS

[14] = target: panel of 255 wild-type kinases (Homo sapiens, UniProt Q9Y243); details: AKT3 kinase assay; 1 µmol/L single concentration; read-out: %-inhibition AKT3

| SMILES | inhibition at 1 µM [1] [%] | inhibition at 1 µM [2] [%] | inhibition at 1 µM [3] [%] | inhibition at 1 µM [4] [%] | inhibition at 1 µM [5] [%] | inhibition at 1 µM [6] [%] | inhibition at 1 µM [7] [%] | inhibition at 1 µM [8] [%] | inhibition at 1 µM [9] [%] | inhibition at 1 µM [10] [%] | inhibition at 1 µM [11] [%] | inhibition at 1 µM [12] [%] | inhibition at 1 µM [13] [%] | inhibition at 1 µM [14] [%] |
| --- | --- | --- | --- | --- | --- | --- | --- | --- | --- | --- | --- | --- | --- | --- |
| C[C@H](Nc1ncnc2nc[nH]c12)c1cc2cccc(Cl)c2c(=O)n1-c1ccccc1 [duvelisib] | 3.24 | -8 | 3.24 | -3.48 | -0.702 | -2.14 | 5 | 7.51 | 0.446 | -7 | -5 | 5 | 10 | 0.279 |
| COC(=O)N[C@@H](C)CNc1nccc(-c2cn(C(C)C)nc2-c2cc(Cl)cc(NS(C)(=O)=O)c2F)n1 [encorafenib] | 1.37 | 21 | -0.672 | 6 | 14 | 5 | 35 | -12 | 4.33 | -4.51 | 4.58 | 14 | -10 | -0.872 |
| CCc1nc(C(N)=O)c(Nc2ccc(N3CCC(N4CCN(C)CC4)CC3)c(OC)c2)nc1NC1CCOCC1 [gilteritinib] | 96 | 84 | 74 | 18 | 83 | 79 | 4 | 11 | 70 | 5 | 44 | 94 | 41 | -4.56 |
| O=C(Nc1cnn2ccc(N3CCC[C@@H]3c3cc(F)ccc3F)nc12)N1CC[C@H](O)C1 [larotrectinib] | 2.55 | -0.211 | -2.17 | -4.7 | 10 | -0.152 | -1.34 | 0.701 | -5.37 | -6 | -7 | 1.8 | -0.0475 | -5.46 |
| C[C@H]1Oc2cc(cnc2N)-c2c(nn(C)c2C#N)CN(C)C(=O)c2ccc(F)cc21 [lorlatinib] | 22 | 10 | 43 | -4.39 | 11 | 56 | 6 | 74 | 6 | -0.456 | -2 | 7 | 19 | -0.768 |
| CCN1C(=O)N(c2c(F)c(OC)cc(OC)c2F)Cc2cnc3[nH]c(CN4CCOCC4)cc3c21 [pemigatinib] | 17 | -5.31 | -3 | -2.67 | 5 | -0.619 | 14 | 27 | -4.63 | 30 | -7 | 4 | 5 | -2.7 |
| FC(F)(F)c1ccc(CNc2ccc(Cc3c[nH]c4ncc(Cl)cc34)cn2)cn1 [pexidartinib] | 5.64 | -5 | -2 | 8 | 13 | 6.38 | 0.932 | 3.25 | 61 | 12 | 24 | 20 | 68 | -6 |
| CO[C@]1(C(=O)N[C@@H](C)c2ccc(-n3cc(F)cn3)nc2)CC[C@H](c2nc(C)cc(Nc3cc(C)[nH]n3)n2)CC1 [pralsetinib] | 81 | 9 | 56 | -3 | 53 | 68 | 3 | 1.65 | -4.32 | 5 | 37 | 6.58 | 36 | -2.71 |
| CCn1c(=O)c(-c2cc(NC(=O)Nc3ccccc3)c(F)cc2Br)cc2cnc(NC)cc21 [ripretinib] | 50 | -5.68 | 90 | 1.4 | 36 | 54 | 88 | 2 | 8.51 | 69 | 0.401 | 28 | 0.523 | -6.42 |
| COc1ccc(CN2C3CC2CN(c2ccc(-c4cc(OCC(C)(C)O)cn5ncc(C#N)c45)cn2)C3)cn1 [selpercatinib] | 51 | 5 | 73 | 6 | 7.42 | 96 | -0.132 | 1.22 | 42 | -0.264 | 43 | 6 | 80 | -0.71 |
| Cn1cnc2c(F)c(Nc3ccc(Br)cc3Cl)c(C(=O)NOCCO)cc21 [selumetinib] | -0.332 | -2.71 | 0.674 | -3.48 | 33 | -1.78 | 3.34 | 0.902 | -6.56 | 0.627 | 5.4 | 2.3 | -0.456 | -6.42 |

Reference: PMC9516332 (Frontiers in Oncology, 2022)
